The source of these data is paper PMC5084075 (ACS Central Science, 2016).

Data set [1] deals with T1, Plasmodium falciparum Pfal (K1).
T1 construct: K1
The data set is described as follows: microbe, parasite or virus in culture. Also on record: species or system erythrocytes; P. falciparum asexual blood-stage whole-cell growth inhibition, IC50. To be noted: K1, Erythrocyte. Here is the method:
(§1) To confirm the promise of the two starting points OSM-S-5 and -6, they were evaluated against 3D7 (drug-sensitive) and K1 (chloroquine resistant) strains of Plasmodium falciparum in a whole cell assay and against HEK-293 cells as a cytotoxicity marker (Table SB1, Biological Protocols; tables with the prefix “SB” may be found in the Supporting Information). Biological data may be browsed in a static data set taken as a snapshot for this paper (Data Sets S1 (Excel), S2 (SDF)), online in a database constructed through periodic batch uploads,[68] or in a “living database” to which may be added future data;[69] the latter may be visualized in a web browser[70] using an open source system that was recently deployed in the Wikipedia Chemical Structure Explorer,[71] or the data may be downloaded and visualized offline with proprietary (Figure S4)[72] or open source (Figure S5)[73] tools). The evaluation was performed in three different institutions using different assays and widely employed controls; controls are important to assess reproducibility and interassay variability[74] but also to minimize possible bias in evaluating compounds where there are pre-existing data from other researchers already in the public domain (Figure S6).[75]

In data set [2] the test system is T2, Plasmodium falciparum 3D7.
T2 construct: 3D7
In words: microbe, parasite or virus in culture. To be noted: Avery assay, read-out: 3D7 / IC50nM. Also on record: species or system P. falciparum blood stage culture; whole-cell asexual blood stage P. falciparum growth inhibition. Here is the method: as §1

Data set [3] concerns T3, Plasmodium falciparum K1 (chloroquine resistant).
T3 construct: K1
In words: microbe, parasite or virus in culture. More on the design: species or system P. falciparum blood stage culture; whole-cell asexual blood stage P. falciparum growth inhibition. The protocol:
as §1

Data set [4] deals with T4, Plasmodium falciparum Pfal (3D7).
T4 construct: 3D7
In words: microbe, parasite or virus in culture. Also on record: species or system erythrocytes; P. falciparum asexual blood-stage whole-cell growth inhibition, IC50. To be noted: 3D7, Erythrocyte, lab named in column head. The protocol: as §1

The subject of data set [5] is Plasmodium falciparum Pfal (strain not named in column head). In words: microbe, parasite or virus in culture. More on the design: species or system P. falciparum blood stage culture; whole-cell asexual blood stage P. falciparum growth inhibition. Here is the method: as §1
Data set [6] deals with T5, PfDHODH (Plasmodium falciparum, UniProt Q08210).
T5 sequence (Q08210 1-569): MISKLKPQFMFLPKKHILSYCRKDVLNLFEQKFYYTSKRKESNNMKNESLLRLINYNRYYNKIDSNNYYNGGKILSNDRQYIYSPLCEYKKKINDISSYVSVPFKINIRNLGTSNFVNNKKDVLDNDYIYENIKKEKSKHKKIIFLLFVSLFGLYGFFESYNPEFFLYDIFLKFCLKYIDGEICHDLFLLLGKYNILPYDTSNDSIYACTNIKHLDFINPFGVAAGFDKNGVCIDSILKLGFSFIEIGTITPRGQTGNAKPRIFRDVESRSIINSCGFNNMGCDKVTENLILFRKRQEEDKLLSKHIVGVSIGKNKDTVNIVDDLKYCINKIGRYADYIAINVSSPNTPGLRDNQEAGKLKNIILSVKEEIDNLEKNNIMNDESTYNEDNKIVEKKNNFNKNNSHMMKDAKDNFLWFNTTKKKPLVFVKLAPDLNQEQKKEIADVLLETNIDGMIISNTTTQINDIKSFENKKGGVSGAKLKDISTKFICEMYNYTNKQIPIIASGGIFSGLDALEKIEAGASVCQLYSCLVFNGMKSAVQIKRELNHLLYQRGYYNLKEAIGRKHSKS
In words: biochemical. Particulars: read-out: DHODH. Also on record: PfDHODH enzyme inhibition IC50. An excerpt: The potency of the near neighbor set led to an in silico target prediction study being performed on OSM-S-39 (Text S11). The method employed a naive Bayes statistical model identifying molecular structural features of small molecules with protein targets, using the ChEMBL database. Similar statistical approaches based on known activities of compounds have been successfully applied to identify targets of antitubercular compounds.[112]−[114] A total of 1,287 proteins were included for which at least 50 active compounds were known with activities <10 μM, with the other compounds in the database comprising the inactives. After the OSM compounds were scored against each target, the scores obtained were standardized by comparison with scores obtained through comparison with a random set of >10K compounds. The prediction list was culled for proteins relevant to malaria (3D7 proteome), and the analysis gave as the most likely candidate targets, in order of significance, carboxy-terminal domain RNA polymerase II polypeptide A small phosphatase 1 (Q8I3U9), dihydroorotate dehydrogenase (DHODH, Q08210), SUMO-activating enzyme subunit 2 (Q8I553) and 1 (Q8IHS2), and cyclin-dependent kinase 1 (P61075). […] A line of inquiry remaining open is the equivalent assays against the other targets identified in the in silico prediction.

Data set [7] is described as follows: in vitro. Also on record: microsomal stability with NADPH, LC-MS, half-life and CLint. To be noted: human, liver microsomes, HLM. The protocol:
(§2) The two original GSK hits (OSM-S-5 and -6) and six NN compounds were evaluated for their kinetic solubility in phosphate buffer and their metabolic stability in human liver microsomes (Table SB5, Data Sets S20 and S21).

Data set [8] is described as follows: in vitro. Also on record: metabolic stability in human liver microsomes, LC-MS, NADPH, 0.4 mg/mL protein. To be noted: liver microsomes, human liver microsomes. Here is the method:
as §2

Data set [9] relates to HEK293. In words: cells. Particulars: Homo sapiens, cytotoxicity. Also on record: cytotoxicity counter-screen on HEK293 cells. Here is the method:
as §1

Setting [10] is: Avery assay, read-out: K1 / IC50nM.
Where [11] appears, read: Guy assay, read-out: Pfal (K1) IC50 (Guy).

The structures appear in SMILES notation. Like-named read-outs stand apart in the source and are kept apart here. Where only a bound is given, the exact number is not on record here.

For the compound `C[C@@H]1CC[C@H]2[C@@H](C)C(=O)O[C@@H]3O[C@@]4(C)CC[C@@H]1[C@]32OO4` [Artemisinin], the IC50 in [1] (read-out: K1 / IC50nM) is 0.61 nM; in data set [2], 6 nM.

On to `CCN(CC)CCCC(C)Nc1ccnc2cc(Cl)ccc12` (centres unmarked) [Chloroquine], for which the IC50 in data set [2] worked out at 18.7 nM; in data set [3] (setting [10]), 266 nM.

For `Cc1cc(/C=C2\SC(=Nc3ccccc3)NC2=O)c(C)n1-c1ccc(S(N)(=O)=O)cc1` [OSM-A-1], the IC50 is 4380 nM in data set [1] (lab named in column head, read-out: Pfal (K1) IC50 (Guy)); 3.05 µM in data set [4] (read-out: Pfal IC50 (Guy)); 3.05 µM in [5] (Guy assay); 4380 nM in data set [3] (setting [11]).

For the compound `Cc1cc(/C=C2\S/C(=N\c3ccccc3)NC2=O)c(C)n1-c1ccc(C#N)cc1` [OSM-A-2], the IC50 in [5] (Guy assay) worked out at 0.574 µM; in data set [3] (setting [11]) it was 1830 nM.

In the case of `COc1cccc(-n2c(C)cc(/C=C3\S/C(=N\c4ccccc4)NC3=O)c2C)c1` [OSM-A-3], the results for the IC50 in [5] (Guy assay) and in data set [3] (setting [11]) were 0.098 µM and 140 nM, respectively.

Take `Cc1cc(/C=C2\S/C(=N\c3ccccc3)NC2=O)c(C)n1-c1ccc(I)cc1` [OSM-A-4]: the results for the IC50 in [5] (Guy assay) and in data set [3] (setting [11]) were 1.75 µM and 3160 nM, respectively.

`Cc1cc(S(=O)(=O)N(C)CC(N)=O)c(C)n1-c1ccc(F)cc1` [OSM-E-1] displayed an IC50 in data set [5] (Dundee assay) above 50 µM.

In turn, `Cc1cc(S(=O)(=O)NCC(N)=O)c(C)n1-c1ccc(F)cc1` [OSM-E-2] showed an IC50 in data set [5] (Dundee assay) above 50 µM.

The compound `Cc1c(S(=O)(=O)N(C)CC(N)=O)c(S(=O)(=O)N(C)CC(N)=O)c(C)n1-c1ccc(F)cc1` [OSM-E-3] displayed an IC50 in [5] (Dundee assay) above 50 µM.

`O=C(CBr)OCc1cn(-c2ccc(F)cc2)nn1` [OSM-E-4] returned an IC50 in [5] (Dundee assay) above 50 µM.

The compound `CCOC(=O)COCc1cn(-c2ccc(F)cc2)nn1` [OSM-E-5] returned an IC50 in [5] (Dundee assay) above 50 µM.

Take `COC(=O)COCc1cn(-c2ccc(F)cc2)nn1` [OSM-E-6]: the IC50 in data set [5] (Dundee assay) was above 50 µM.

As to `O=C(COCc1cn(-c2ccc(F)cc2)nn1)OCc1cn(-c2ccc(F)cc2)nn1` [OSM-E-7], in [5] (Dundee assay), the IC50 was above 50 µM.

In turn, `NC(=O)COCc1cn(-c2ccc(F)cc2)nn1` [OSM-E-8] returned an IC50 in [5] (Dundee assay) above 50 µM.

`Cc1cc(/C=C2\S/C(=N\c3ccccc3)N(c3ccccc3)C2=O)c(C)n1-c1cccc(F)c1` [OSM-L-1]: the IC50 was 3.2 µM in [5] (Batra assay) and above 5000 nM in data set [3] (Batra assay, read-out: Pfal (K1) IC50 (Batra)).

On to `Cc1cc(/C=C2\SC(=Nc3ccccc3)N(c3ccccc3)C2=O)c(C)n1-c1cccc(F)c1` [OSM-L-1], for which the IC50 in data set [1] (lab named in column head, read-out: Pfal (K1) IC50 (Batra)) is above 5000 nM; in data set [4] (read-out: Pfal IC50 (Batra)), 3.2 µM.

In the case of `Cc1cc(C=O)c(C)n1-c1ccc(F)cc1` [OSM-S-2], the IC50 in data set [6] was above 50 µM.

In the case of `CCOC(=O)c1cc(C)n(-c2ccc(F)cc2)c1C` [OSM-S-3], the IC50 in [6] was above 50 µM.

With `Cc1cc(C(=O)O)c(C)n1-c1ccc(F)cc1` [OSM-S-4], the IC50 in [6] was above 50 µM.

As to `Cc1cc(C(=O)OCC(=O)Nc2c(C)n(C)n(-c3ccccc3)c2=O)c(C)n1-c1ccc(F)cc1` [OSM-S-6], in data set [6], the IC50 was above 50 µM.

On to `Cc1cc(C(=O)N(C(=O)NC2CCCCC2)C2CCCCC2)c(C)n1-c1ccc(F)cc1` [OSM-S-7], for which, in [6], the IC50 was above 50 µM.

Turning to `Cc1cc(C(=O)Nc2c(C)n(C)n(-c3ccccc3)c2=O)c(C)n1-c1ccc(F)cc1` [OSM-S-8], the IC50 in [6] is above 50 µM.

In the case of `Cc1cc(/C=C2\S/C(=N\c3ccccc3)NC2=O)c(C)n1-c1ccc(F)cc1` [OSM-S-10], the microsomal CLint in [7] (read-out: CLint HLM (Monash)) and in [8] (read-out: CLint HLM (Monash)) was 17 µL/min/mg throughout. For the same compound, the half-life in data set [7] (read-out: t1/2 HLM (Monash)) and in [8] (read-out: t1/2 HLM (Monash)) was 1.72 h throughout.

For `Cc1c(NC(=O)CNC(=O)c2ccccc2)c(=O)n(-c2ccccc2)n1C` [OSM-S-16], in [6], the IC50 was above 50 µM.

In the case of `Cc1cc(C(=O)NCC(N)=O)c(C)n1-c1ccc(F)cc1` [OSM-S-19], in data set [6], the IC50 is above 50 µM.

As for `Cc1cc(C(=O)NCC(=O)Nc2c(C)n(C)n(-c3ccccc3)c2=O)c(C)n1-c1ccc(F)cc1` [OSM-S-21], the IC50 in [6] is above 50 µM.

Turning to `Cc1cc(/C=C2\S/C(=N\c3ccccc3)N(CC#N)C2=O)c(C)n1-c1ccc(C(F)(F)F)cc1` [OSM-S-42], the IC50 in data set [6] is above 50 µM.

With `Cc1cc(/C=C2\SC(N(CC#N)c3ccccc3)=NC2=O)c(C)n1-c1ccc(C(F)(F)F)cc1` [OSM-S-43], the IC50 in data set [6] is above 50 µM.

On to `CC(=O)N(C1=NC(=O)/C(=C/c2cc(C)n(-c3ccc(C(F)(F)F)cc3)c2C)S1)c1ccccc1` [OSM-S-45], for which the IC50 in data set [6] is above 50 µM.

Turning to `CCOC(=O)c1ccc(-n2c(C)cc(/C=C3\S/C(=N/c4ccccc4)NC3=O)c2C)cc1` [OSM-S-48], the IC50 in data set [6] is above 50 µM.

As to `CC(=O)N(C1=NC(=O)/C(=C/c2cc(C)n(-c3ccccc3)c2C)S1)c1ccccc1` [OSM-S-49], the IC50 in data set [6] is above 50 µM.

For `CC(=O)N(C1=NC(=O)/C(=C/c2cc(C)n(-c3ccc(C)cc3)c2C)S1)c1ccccc1` [OSM-S-50], in [6], the IC50 was above 50 µM.

With `Cc1cc(/C=C2\S/C(=N\c3ccccc3)NC2=O)c(C)n1-c1ccccn1` [OSM-S-51], the IC50 in data set [6] is above 50 µM.

On to `Cc1cc(/C=C2\S/C(=N\c3ccccc3)N(c3ccccc3)C2=O)c(C)n1-c1ccc(C(F)(F)F)cc1` [OSM-S-52], for which the IC50 in data set [6] was above 50 µM.

In the case of `Cc1cc(/C=C2\S/C(=N\c3ccccc3)N(C3CCCC3)C2=O)c(C)n1-c1ccc(C(F)(F)F)cc1` [OSM-S-54], the IC50 in [6] is above 50 µM.

Take `O=C1N=C(Nc2ccccc2)S/C1=C\c1ccccc1` [OSM-S-55]: the IC50 in data set [6] was above 50 µM.

Compound `Cc1cc(/C=C2\S/C(=N\c3ccccc3)NC2=O)c(C)[nH]1` [OSM-S-108] displayed an inhibition at 40 µM in data set [9] of 44%.

In turn, `Cc1cc(/C=C2\S/C(=N\c3cccc(O)c3)NC2=O)c(C)n1-c1ccc([N+](=O)[O-])cc1` [OSM-S-110] had an inhibition at 40 µM in data set [9] of 26%.

Regarding `COc1ccc(-n2c(C)cc(/C=C3\S/C(=N\c4cccc(O)c4)NC3=O)c2C)cc1` [OSM-S-112], in data set [9], 40 µM produced 38% inhibition.

For `Cc1cc(/C=C2\S/C(=N\c3cccc(O)c3)NC2=O)c(C)n1-c1ccccc1` [OSM-S-114], the inhibition at 40 µM in data set [9] amounted to 42%.

In data set [9], `Cc1cc(/C=C2\S/C(=N\c3ccc(O)cc3)NC2=O)c(C)n1-c1ccccc1` [OSM-S-115] yielded an inhibition at 40 µM of 35%.

As to `COc1cc(C)c2c(Oc3cccc(C(F)(F)F)c3)c(OC)cc(NC(C)CCCN)c2n1` (centres unmarked) [Tafenoquine], the IC50 in [2] and in [3] (setting [10]) was 451 nM throughout.
